Measured values published in article PMC11101630.
Values belong to the molecule of their own block, whether it stands above or below them.

Tests used:
[1] = system: RhoBAST A50U (RNA, aptamer) GGAACCUCCGCGAAAGCGGUGAAGGAGAGGCGCAAGGUUUACCGCCUCAGGUUCC; assay: ITC; details: K+ 100 mM; Mg2+ concentration not given; 20 mM Tris-HCl pH 7.5, 25 °C, nM inferred from ΔG
[2] = system: RhoBAST G46A (RNA, aptamer) GGAACCUCCGCGAAAGCGGUGAAGGAGAGGCGCAAAGUUAACCGCCUCAGGUUCC; assay: ITC; details: K+ 100 mM; Mg2+ concentration not given; 20 mM Tris-HCl pH 7.5, 25 °C; 6.2 x K of WT
[3] = system: RhoBAST C8G (RNA, aptamer) GGAACCUGCGCGAAAGCGGUGAAGGAGAGGCGCAAGGUUAACCGCCUCAGGUUCC; assay: ITC; details: K+ 100 mM; Mg2+ concentration not given; 20 mM Tris-HCl pH 7.5, 25 °C; affinity not prominently reduced
[4] = system: RhoBAST U30C/A36C (RNA, aptamer) GGAACCUCCGCGAAAGCGGCGAAGGCGAGGCGCAAGGUUAACCGCCUCAGGUUCC; assay: ITC; details: K+ 100 mM; Mg2+ concentration not given; 20 mM Tris-HCl pH 7.5, 25 °C; 28 x K of WT
[5] = system: RhoBAST A36U (RNA, aptamer) GGAACCUCCGCGAAAGCGGUGAAGGUGAGGCGCAAGGUUAACCGCCUCAGGUUCC; assay: ITC; details: K+ 100 mM; Mg2+ concentration not given; 20 mM Tris-HCl pH 7.5, 25 °C; 3.5 x K of WT
[6] = system: RhoBAST L2-U1 (L2'-U1; RhoBAST-U1A Loop) (RNA, aptamer) GGAACCUCCGCCCAUUGCACUCCGGGCGGUGAAGGAGAGGCGCAAGGUUAACCGCCUCAGGUUCC; assay: binding assay in Supplementary Fig. 1b; details: K+ 100 mM, Mg2+ 10 mM assumed; 20 mM Tris-HCl pH 7.5, 25 °C, nM inferred from ΔG high affinity as wild type
[7] = system: RhoBAST L3'-U1 (RNA, aptamer) GGAACCUCCGCGAAAGCGGUGAAGGAGAGGCCAUUGCACUCCGGCCUCAGGUUCC; assay: binding assay in Supplementary Fig. 1b
[8] = system: RhoBAST G31C (RNA, aptamer) GGAACCTCCGCGAAAGCGGUCAAGGAGAGGCGCAAGGUUAACCGCCUCAGGUUCC; assay: ITC; details: K+ 100 mM; Mg2+ concentration not given; 20 mM Tris-HCl pH 7.5, 25 °C; 100 μM TMR-DN titrated into 10 μM RNA
[9] = system: RhoBAST A36C (RNA, aptamer) GGAACCUCCGCGAAAGCGGUGAAGGCGAGGCGCAAGGUUAACCGCCUCAGGUUCC; assay: ITC; details: K+ 100 mM; Mg2+ concentration not given; 20 mM Tris-HCl pH 7.5, 25 °C; 40 x K of WT
[10] = system: RhoBAST G47A (RNA, aptamer) GGAACCUCCGCGAAAGCGGUGAAGGAGAGGCGCAAGAUUAACCGCCUCAGGUUCC; assay: ITC; details: K+ 100 mM; Mg2+ concentration not given; 20 mM Tris-HCl pH 7.5, 25 °C; 26.8 x K of WT
[11] = system: RhoBAST C52G (RNA, aptamer) GGAACCTCCGCGAAAGCGGUGAAGGAGAGGCGCAAGGUUAAGCGCCUCAGGUUCC; assay: ITC; details: K+ 100 mM; Mg2+ concentration not given; 20 mM Tris-HCl pH 7.5, 25 °C; 100 μM TMR-DN titrated into 10 μM RNA
[12] = system: RhoBAST ∆U7 (RNA, aptamer) GGAACCCCGCGAAAGCGGUGAAGGAGAGGCGCAAGGUUAACCGCCUCAGGUUCC; assay: ITC; details: K+ 100 mM; Mg2+ concentration not given; 20 mM Tris-HCl pH 7.5, 25 °C; affinity not prominently reduced
[13] = system: RhoBAST A33G (RNA, aptamer) GGAACCUCCGCGAAAGCGGUGAGGGAGAGGCGCAAGGUUAACCGCCUCAGGUUCC; assay: ITC; details: K+ 100 mM; Mg2+ concentration not given; 20 mM Tris-HCl pH 7.5, 25 °C; similar to WT
[14] = system: RhoBAST G47C (RNA, aptamer) GGAACCUCCGCGAAAGCGGUGAAGGAGAGGCGCAAGCUUAACCGCCUCAGGUUCC; assay: ITC; details: K+ 100 mM; Mg2+ concentration not given; 20 mM Tris-HCl pH 7.5, 25 °C; 100 μM TMR-DN titrated into 10 μM RNA
[15] = system: RhoBAST U48C (RNA, aptamer) GGAACCUCCGCGAAAGCGGUGAAGGAGAGGCGCAAGGCUAACCGCCUCAGGUUCC; assay: ITC; details: K+ 100 mM; Mg2+ concentration not given; 20 mM Tris-HCl pH 7.5, 25 °C; 1.3 x K of WT
[16] = system: RhoBAST WT (RNA, aptamer) GGAACCUCCGCGAAAGCGGUGAAGGAGAGGCGCAAGGUUAACCGCCUCAGGUUCC; assay: ITC; details: K+ 100 mM, Mg2+ 0.5 mM; 20 mM Tris-HCl pH 7.5, 25 °C; no binding observed without Mg2+
[17] = system: RhoBAST A33C (RNA, aptamer) GGAACCUCCGCGAAAGCGGUGACGGAGAGGCGCAAGGUUAACCGCCUCAGGUUCC; assay: ITC; details: K+ 100 mM; Mg2+ concentration not given; 20 mM Tris-HCl pH 7.5, 25 °C; similar to WT
[18] = system: RhoBAST G37A (RNA, aptamer) GGAACCUCCGCGAAAGCGGUGAAGGAAAGGCGCAAGGUUAACCGCCUCAGGUUCC; assay: ITC; details: K+ 100 mM; Mg2+ concentration not given; 20 mM Tris-HCl pH 7.5, 25 °C; affinity not prominently reduced
[19] = system: RhoBAST A51U (RNA, aptamer) GGAACCUCCGCGAAAGCGGUGAAGGAGAGGCGCAAGGUUAUCCGCCUCAGGUUCC; assay: ITC; details: K+ 100 mM; Mg2+ concentration not given; 20 mM Tris-HCl pH 7.5, 25 °C, nM inferred from ΔG
[20] = system: RhoBAST U49A (RNA, aptamer) GGAACCUCCGCGAAAGCGGUGAAGGAGAGGCGCAAGGUAAACCGCCUCAGGUUCC; assay: ITC; details: K+ 100 mM; Mg2+ concentration not given; 20 mM Tris-HCl pH 7.5, 25 °C; 100 x K of WT
[21] = system: RhoBAST L2-U1 (L2'-U1; RhoBAST-U1A Loop) (RNA, aptamer) GGAACCUCCGCCCAUUGCACUCCGGGCGGUGAAGGAGAGGCGCAAGGUUAACCGCCUCAGGUUCC; assay: X-ray crystal structure, 2.75 Å; details: Mg2+; co-crystal with U1A protein
[22] = system: RhoBAST G35C/C52G (RNA, aptamer) GGAACCTCCGCGAAAGCGGUGAAGCAGAGGCGCAAGGUUAAGCGCCUCAGGUUCC; assay: ITC; details: K+ 100 mM; Mg2+ concentration not given; 20 mM Tris-HCl pH 7.5, 25 °C; 100 μM TMR-DN titrated into 10 μM RNA
[23] = system: RhoBAST G35A (RNA, aptamer) GGAACCTCCGCGAAAGCGGUGAAGAAGAGGCGCAAGGUUAACCGCCUCAGGUUCC; assay: ITC; details: K+ 100 mM; Mg2+ concentration not given; 20 mM Tris-HCl pH 7.5, 25 °C; 100 μM TMR-DN titrated into 10 μM RNA
[24] = system: RhoBAST C52A (RNA, aptamer) GGAACCTCCGCGAAAGCGGUGAAGGAGAGGCGCAAGGUUAAACGCCUCAGGUUCC; assay: ITC; details: K+ 100 mM; Mg2+ concentration not given; 20 mM Tris-HCl pH 7.5, 25 °C; 46 x K of WT
[25] = target: U1A (U1 RNA-binding protein, co-crystallization chaperone) (human, UniProt P09012 1-102); assay: ITC; TMR-DN presence in this assay not stated; ITC: 20 mM Tris-HCl pH 7.5, 100 mM KCl, 0-10 mM MgCl2, 25 C (described for RNA-fluorophore titrations; U1A conditions not separately given); details: protein: recombinant; four-way junction; U1A hairpin loop
U1A (U1 RNA-binding protein, co-crystallization chaperone), sequence (P09012 1-102): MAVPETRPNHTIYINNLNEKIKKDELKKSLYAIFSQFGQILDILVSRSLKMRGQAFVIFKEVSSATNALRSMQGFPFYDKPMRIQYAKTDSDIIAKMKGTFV

KD [1]: 3590 nM
KD [2]: 217 nM
KD [3]: 47 nM
KD [4]: 976 nM
KD [5]: 122 nM
KD [6]: 35.5 ± 5.69 nM
binding [7]: no
binding [8]: no
KD [9]: 1400 nM
KD [10]: 931 nM
binding [11]: no
KD [12]: 56.9 nM
KD [13]: 35.1 nM
binding [14]: no
KD [15]: 45.5 nM
KD [16]: ~ 24 nM
KD [17]: 65.5 nM
KD [18]: 83 nM
KD [19]: 1060 nM
KD [20]: 3510 nM
binding [21]: yes
binding [22]: no
binding [23]: no
KD [24]: 1600 nM
Molecule: CN(C)c1ccc2c(-c3ccc(C(=O)NCCOCCOCCNc4ccc([N+](=O)[O-])cc4[N+](=O)[O-])cc3C(=O)[O-])c3ccc(=[N+](C)C)cc-3oc2c1

B1: RhoBAST-U1A Loop (L2'-U1) (structured_RNA)
RNA: GGAACCUCCGCCCAUUGCACUCCGGGCGGUGAAGGAGAGGCGCAAGGUUAACCGCCUCAGGUUCC
Kd [25]: 7.94 ± 1.74 nM
